Results as given in publication PMC7247319, “The mitochondria-targeted peptide SS-31 binds lipid bilayers and modulates surface electrostatics as a key component of its mechanism of action” (The Journal of Biological Chemistry, 2020).
Where a SMILES comes first, the peptide text is derived from it. [ ]: non-standard residue; d: D form. Dmt = Cc1cc(O)cc(C)c1C[C@H](N)C(=O)O

System: mitoplasts from WT and Δcrd1 yeast
Test: ANS-detected surface potential of mitoplasts
Set-up: species or system Saccharomyces cerevisiae
Excerpt: Figure 6. Interaction of SS-31 with isolated mitochondria. A, [ald]SS-31 binding with differing phospholipid composition. Left, percentages of total phospholipid of each species (phosphatidylcholine (PC), phosphatidylethanolamine (PE), cardiolipin (CL), monolyso-CL (MLCL), phosphatidylglycerol (PG), phosphatidic acid (PA), phosphatidylinositol (PI), phosphatidylserine (PS), and lysophosphatidylcholine (LPC)) in mitochondria from WT, Δtaz1, and Δcrd1 strains measured by shotgun lipidomics. Right, binding of 1 μM [ald]SS-31 with mitochondria isolated from WT, Δtaz1, and Δcrd1 yeast strains quantified as the mean fractional increase (F/F0) in aladan emission with increasing mitochondria concentration for fully energized mitochondria. Inset, relative binding of [ald]SS-31 to mitochondria (0.2 mg ml^−1) in the presence or absence of 1 μM valinomycin (val) as indicated. Values shown are means ± S.D. (error bars) (n = 3). B, comparison of [ald]SS-31 binding to mitochondria and model membranes. […]
The final goal of these experiments was to evaluate the effect of SS peptides on the surface electrostatic properties of mitochondrial membranes. […] We therefore compared the titration of mitoplasts with SS-31 and mono- and divalent cations (K^+ and Ca^2+, respectively) to evaluate the relative effects of each species on ANS-detected ψs (Fig. 6C). […]

## Cc1cc(O)cc(C)c1C[C@H](NC(=O)[C@H](N)CCCNC(=N)N)C(=O)N[C@@H](CCCCN)C(=O)N[C@@H](Cc1ccccc1)C(N)=O [SS-31, D-Arg-2′6′-dimethyl-Tyr-Lys-Phe-NH2] (H-[dR][Dmt]KF-NH2)
WT mitoplasts, 20 μM SS-31 added before CaCl2
  effect of peptide addition prior to CaCl2 titration on Ca2+-mediated decrease in ψs: strongly blunted the effects of Ca^2+ on surface potential
Titration of WT and Δcrd1 mitoplasts, n = 3
  effect on ANS fluorescence (ψs) of mitoplasts: increase in ANS fluorescence
